Assay results from patent US20240269139A1, “COMPOUNDS FOR TARGETED PROTEIN DEGRADATION OF KINASES” (DANA-FARBER CANCER INSTITUTE, INC., priority 2020, published 2024).
Read-outs that look alike come from different tables or passages of the source.

Assays:
[1] = target: extended human kinome (kinase-like proteins) (Homo sapiens, UniProt Q16875); assay: Whole cell quantitative proteomics: extended kinome hits; conditions: Accession Q16875
[2] = target: protein kinases (human kinome) (Homo sapiens, UniProt P45984); assay type: cell-based
[3] = target: protein kinases (human kinome) (Homo sapiens, UniProt P07947); assay type: cell-based; conditions: YES1 (P07947)
[4] = target: protein kinases (human kinome) (Homo sapiens, UniProt P41240); assay type: cell-based; conditions: for logFC of CSK: Accession P41240; for logFC CSK: CSK (P41240), down
[5] = target: protein kinases (human kinome) (Homo sapiens, UniProt Q9HBH9); assay type: cell-based; conditions: for logFC MKNK2 (Q9HBH9): Experiment wp152; for logFC: MKNK2 (Q9HBH9-1)
[6] = target: protein kinases (human kinome) (Homo sapiens, UniProt Q13233); assay type: cell-based
[7] = target: T1, extended human kinome (kinase-like proteins) (Homo sapiens, UniProt Q53R41); assay: Whole cell quantitative proteomics: extended kinome hits
T1 sequence (Q53R41 1-847): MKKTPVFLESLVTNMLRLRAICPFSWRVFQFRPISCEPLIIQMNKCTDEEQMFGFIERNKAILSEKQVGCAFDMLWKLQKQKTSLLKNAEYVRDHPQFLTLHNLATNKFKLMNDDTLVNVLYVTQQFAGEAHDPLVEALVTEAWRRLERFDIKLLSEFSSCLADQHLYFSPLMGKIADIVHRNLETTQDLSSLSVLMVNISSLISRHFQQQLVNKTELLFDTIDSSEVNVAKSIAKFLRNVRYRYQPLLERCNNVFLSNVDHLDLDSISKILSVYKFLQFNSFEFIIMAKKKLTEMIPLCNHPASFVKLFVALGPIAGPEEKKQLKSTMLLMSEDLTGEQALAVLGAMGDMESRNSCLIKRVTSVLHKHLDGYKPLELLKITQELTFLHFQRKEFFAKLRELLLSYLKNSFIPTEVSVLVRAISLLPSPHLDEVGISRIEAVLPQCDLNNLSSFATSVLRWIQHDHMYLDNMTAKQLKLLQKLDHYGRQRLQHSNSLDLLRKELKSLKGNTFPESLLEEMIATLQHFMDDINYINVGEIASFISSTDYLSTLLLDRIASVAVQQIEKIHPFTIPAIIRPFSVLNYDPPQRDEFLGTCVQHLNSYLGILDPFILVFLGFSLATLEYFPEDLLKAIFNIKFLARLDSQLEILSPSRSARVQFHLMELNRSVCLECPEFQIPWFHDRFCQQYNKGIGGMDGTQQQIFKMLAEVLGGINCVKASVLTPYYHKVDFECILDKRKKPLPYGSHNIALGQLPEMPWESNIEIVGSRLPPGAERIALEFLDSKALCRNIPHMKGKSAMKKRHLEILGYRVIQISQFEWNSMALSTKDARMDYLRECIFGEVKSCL

[8] = target: protein kinases (human kinome) (Homo sapiens, UniProt Q15118); assay type: cell-based; conditions: PDK1 Q15118; experiment wp056
[9] = target: protein kinases (human kinome) (Homo sapiens, UniProt Q15119); assay type: cell-based; conditions: for logFC PDK2: Accession Q15119-1
[10] = MAPK9 P45984-1, experiment wp045
[11] = MAPK9 P45984-1, experiment wp103
[12] = MAPK9 P45984-1, experiment wp105
[13] = MAPK9 P45984-1, experiment wp107
[14] = MAPK9 P45984-1, experiment wp114
[15] = MAPK9 P45984-1, experiment wp117
[16] = MAPK9 P45984-1, experiment wp160, 2 hr
[17] = MAPK9 P45984-1, experiment wp160, 4 hr
[18] = MAPK9 P45984-1, experiment wp160, 8 hr
[19] = MAPK9 P45984-1, experiment wp172
[20] = MAPK9 P45984-1, experiment wp168

Chain of protein kinases (human kinome) (Homo sapiens, UniProt P07947) (P07947 whole entry): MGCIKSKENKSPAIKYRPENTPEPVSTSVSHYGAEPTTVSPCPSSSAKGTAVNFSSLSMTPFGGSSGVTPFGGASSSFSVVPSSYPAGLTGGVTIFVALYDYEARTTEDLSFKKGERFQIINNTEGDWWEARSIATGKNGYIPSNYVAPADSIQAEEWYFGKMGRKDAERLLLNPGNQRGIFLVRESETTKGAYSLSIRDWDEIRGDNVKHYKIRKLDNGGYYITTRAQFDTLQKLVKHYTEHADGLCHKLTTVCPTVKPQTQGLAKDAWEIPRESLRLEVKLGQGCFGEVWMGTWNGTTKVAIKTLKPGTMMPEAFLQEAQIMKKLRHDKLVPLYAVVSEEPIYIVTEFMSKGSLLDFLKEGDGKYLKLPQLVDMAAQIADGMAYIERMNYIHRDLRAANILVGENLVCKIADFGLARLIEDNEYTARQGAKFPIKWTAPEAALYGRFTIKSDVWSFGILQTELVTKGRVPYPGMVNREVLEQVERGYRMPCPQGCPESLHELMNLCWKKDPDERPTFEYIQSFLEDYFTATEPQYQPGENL
Chain of extended human kinome (kinase-like proteins) (Homo sapiens, UniProt Q16875) (Q16875 whole entry): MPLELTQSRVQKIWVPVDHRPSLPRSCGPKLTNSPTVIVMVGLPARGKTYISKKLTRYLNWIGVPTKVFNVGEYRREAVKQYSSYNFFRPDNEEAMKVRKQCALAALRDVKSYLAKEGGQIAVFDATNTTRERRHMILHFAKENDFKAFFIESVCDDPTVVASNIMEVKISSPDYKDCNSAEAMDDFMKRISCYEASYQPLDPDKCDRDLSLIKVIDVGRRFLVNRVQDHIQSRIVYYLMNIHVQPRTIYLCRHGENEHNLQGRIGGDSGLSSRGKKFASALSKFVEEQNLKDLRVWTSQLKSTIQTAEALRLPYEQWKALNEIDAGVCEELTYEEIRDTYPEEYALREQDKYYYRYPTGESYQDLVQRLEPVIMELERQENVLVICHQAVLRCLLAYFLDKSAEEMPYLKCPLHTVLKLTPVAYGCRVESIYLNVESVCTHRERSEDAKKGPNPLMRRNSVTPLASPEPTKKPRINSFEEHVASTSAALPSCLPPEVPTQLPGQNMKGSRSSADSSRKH
Chain of protein kinases (human kinome) (Homo sapiens, UniProt P45984) (P45984 whole entry): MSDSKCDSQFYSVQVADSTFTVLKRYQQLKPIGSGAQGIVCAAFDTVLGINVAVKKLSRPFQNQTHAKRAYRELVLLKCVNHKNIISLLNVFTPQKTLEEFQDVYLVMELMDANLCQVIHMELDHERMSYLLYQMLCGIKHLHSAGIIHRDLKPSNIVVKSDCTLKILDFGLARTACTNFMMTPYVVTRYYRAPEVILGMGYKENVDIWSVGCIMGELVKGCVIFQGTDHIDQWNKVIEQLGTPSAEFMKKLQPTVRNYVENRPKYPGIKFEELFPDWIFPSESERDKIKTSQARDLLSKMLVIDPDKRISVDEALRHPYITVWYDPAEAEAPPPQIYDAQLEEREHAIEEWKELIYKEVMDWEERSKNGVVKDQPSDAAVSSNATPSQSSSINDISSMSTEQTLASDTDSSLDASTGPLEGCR
Chain of protein kinases (human kinome) (Homo sapiens, UniProt Q9HBH9) (Q9HBH9 whole entry): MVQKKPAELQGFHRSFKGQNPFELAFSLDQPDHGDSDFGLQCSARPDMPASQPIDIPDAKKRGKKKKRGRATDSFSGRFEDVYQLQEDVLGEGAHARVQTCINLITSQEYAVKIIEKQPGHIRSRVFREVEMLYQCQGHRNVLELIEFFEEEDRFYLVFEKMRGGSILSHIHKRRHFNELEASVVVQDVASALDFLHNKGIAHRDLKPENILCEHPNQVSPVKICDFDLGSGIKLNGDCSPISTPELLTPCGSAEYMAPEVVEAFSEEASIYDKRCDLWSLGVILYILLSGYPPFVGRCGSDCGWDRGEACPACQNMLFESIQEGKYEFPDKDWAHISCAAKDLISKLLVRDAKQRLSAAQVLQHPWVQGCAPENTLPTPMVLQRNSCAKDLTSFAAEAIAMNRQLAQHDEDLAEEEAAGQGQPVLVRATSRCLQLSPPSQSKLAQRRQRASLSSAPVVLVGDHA
Chain of protein kinases (human kinome) (Homo sapiens, UniProt P41240) (P41240 whole entry): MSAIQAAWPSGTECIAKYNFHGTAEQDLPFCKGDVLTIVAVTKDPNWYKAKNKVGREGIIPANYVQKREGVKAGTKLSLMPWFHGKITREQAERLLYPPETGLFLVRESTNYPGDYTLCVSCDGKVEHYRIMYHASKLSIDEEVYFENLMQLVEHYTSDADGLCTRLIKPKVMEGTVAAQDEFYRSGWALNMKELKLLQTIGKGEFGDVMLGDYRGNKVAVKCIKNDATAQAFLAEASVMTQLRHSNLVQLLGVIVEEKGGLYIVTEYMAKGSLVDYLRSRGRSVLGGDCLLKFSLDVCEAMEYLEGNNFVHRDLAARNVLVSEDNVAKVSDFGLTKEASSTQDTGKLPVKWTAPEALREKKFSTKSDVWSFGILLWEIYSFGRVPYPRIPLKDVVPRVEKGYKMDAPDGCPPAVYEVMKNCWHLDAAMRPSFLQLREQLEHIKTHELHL
Chain of protein kinases (human kinome) (Homo sapiens, UniProt Q13233) (Q13233 whole entry): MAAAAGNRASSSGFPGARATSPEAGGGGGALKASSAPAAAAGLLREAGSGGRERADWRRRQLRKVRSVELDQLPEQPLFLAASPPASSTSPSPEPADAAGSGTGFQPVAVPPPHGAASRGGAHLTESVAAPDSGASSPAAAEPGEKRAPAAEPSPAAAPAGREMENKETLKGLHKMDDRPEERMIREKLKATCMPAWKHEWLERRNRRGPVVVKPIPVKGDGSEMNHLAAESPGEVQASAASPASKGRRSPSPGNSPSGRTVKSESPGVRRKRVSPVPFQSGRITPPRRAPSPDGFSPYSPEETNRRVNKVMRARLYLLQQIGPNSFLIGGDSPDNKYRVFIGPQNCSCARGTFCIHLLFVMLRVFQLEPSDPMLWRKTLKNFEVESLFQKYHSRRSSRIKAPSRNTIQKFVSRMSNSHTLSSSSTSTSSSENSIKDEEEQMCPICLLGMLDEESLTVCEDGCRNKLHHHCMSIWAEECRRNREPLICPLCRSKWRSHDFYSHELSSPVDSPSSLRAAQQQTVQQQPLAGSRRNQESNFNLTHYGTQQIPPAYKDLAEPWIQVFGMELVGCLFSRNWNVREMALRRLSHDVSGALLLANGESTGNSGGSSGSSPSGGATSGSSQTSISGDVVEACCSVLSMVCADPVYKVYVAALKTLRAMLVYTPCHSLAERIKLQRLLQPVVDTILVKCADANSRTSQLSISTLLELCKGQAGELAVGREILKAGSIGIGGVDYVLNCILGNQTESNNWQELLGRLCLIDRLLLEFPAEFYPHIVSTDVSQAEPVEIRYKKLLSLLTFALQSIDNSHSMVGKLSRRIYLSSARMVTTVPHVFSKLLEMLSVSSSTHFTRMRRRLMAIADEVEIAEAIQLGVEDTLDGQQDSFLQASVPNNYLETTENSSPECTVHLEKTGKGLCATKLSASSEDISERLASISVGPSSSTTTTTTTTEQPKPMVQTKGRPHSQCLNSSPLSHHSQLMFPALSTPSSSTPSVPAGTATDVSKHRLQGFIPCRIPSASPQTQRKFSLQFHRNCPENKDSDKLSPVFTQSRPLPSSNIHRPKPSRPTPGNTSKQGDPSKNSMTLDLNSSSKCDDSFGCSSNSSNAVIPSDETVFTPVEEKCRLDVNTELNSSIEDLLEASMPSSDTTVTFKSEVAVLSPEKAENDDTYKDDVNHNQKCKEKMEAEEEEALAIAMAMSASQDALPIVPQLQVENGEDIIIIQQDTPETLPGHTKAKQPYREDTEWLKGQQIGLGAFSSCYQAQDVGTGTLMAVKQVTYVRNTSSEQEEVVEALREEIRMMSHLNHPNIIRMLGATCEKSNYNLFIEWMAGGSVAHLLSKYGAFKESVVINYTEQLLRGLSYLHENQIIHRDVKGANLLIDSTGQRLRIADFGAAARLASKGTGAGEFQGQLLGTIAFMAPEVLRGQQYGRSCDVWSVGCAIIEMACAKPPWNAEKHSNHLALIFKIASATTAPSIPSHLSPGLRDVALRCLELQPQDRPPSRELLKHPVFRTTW
Chain of protein kinases (human kinome) (Homo sapiens, UniProt Q15118) (Q15118 29-436): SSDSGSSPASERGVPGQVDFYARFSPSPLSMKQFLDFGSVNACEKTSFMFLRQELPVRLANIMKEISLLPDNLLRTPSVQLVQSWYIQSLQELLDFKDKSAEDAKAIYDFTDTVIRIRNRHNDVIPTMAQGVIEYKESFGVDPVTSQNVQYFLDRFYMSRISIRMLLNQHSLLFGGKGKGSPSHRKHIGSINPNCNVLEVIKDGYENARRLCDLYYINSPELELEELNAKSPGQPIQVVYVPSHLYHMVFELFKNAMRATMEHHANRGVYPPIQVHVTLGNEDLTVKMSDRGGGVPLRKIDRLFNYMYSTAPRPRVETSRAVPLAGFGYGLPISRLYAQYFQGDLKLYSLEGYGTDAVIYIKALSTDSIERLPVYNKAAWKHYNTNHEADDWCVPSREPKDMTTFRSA

Cc1ccc(NC(=O)c2cccc(C(F)(F)F)c2)cc1N1Cc2cnc(Nc3ccc(N4CCN(Cc5cn(CCCCCOc6cccc7c6C(=O)N(C6CCC(=O)NC6=O)C7=O)nn5)CC4)nc3)nc2N(C)C1=O (stereo not shown) [DB0646, N-(3-(7-((6-(4-((1-(5-((2-(2,6-Dioxopiperidin-3-yl)-1,3-dioxoisoindolin-4-yl)oxy)pentyl)-1H-1,2,3-triazol-4-yl)methyl)piperazin-1-v)pyridin-3-yl)amino)-1-methyl-2-oxo-1,4-dihydropyrimido[4,5-d]pyrimidin-3(2H)-yl)-4-methylphenyl)-3-(trifluoromethyl)benzamide]
logFC PFKFB3 ([1]; experiment wp045): −0.5182
logFC PFKFB3 ([1]; experiment wp160, 8 hr): −0.3754
logFC MAPK9 (P45984) ([2]; Experiment wp152, direction of change down): −2.161
logFC [2, 10]: −1.344
logFC MAPK9 [2, 10]: −1.344
logFC [2, 11]: −1.045
logFC MAPK9 [2, 11]: −1.045
logFC [2, 12]: −0.929
logFC MAPK9 [2, 12]: −0.929
logFC [2, 13]: −1.414
logFC MAPK9 [2, 13]: −1.414
logFC [2, 14]: −0.5078
logFC MAPK9 [2, 14]: −0.5078
logFC [2, 15]: −1.488
logFC MAPK9 [2, 15]: −1.488
logFC [2, 16]: −0.7555
logFC MAPK9 [2, 16]: −0.7555
logFC [2, 17]: −1.498
logFC MAPK9 [2, 17]: −1.498
logFC [2, 18]: −2.137
logFC MAPK9 [2, 18]: −2.137
logFC [2, 19]: −0.8343
logFC MAPK9 [2, 19]: −0.8343
logFC MAPK9 ([2]; MAPK9 P45984, experiment wp152): −2.161
logFC ([3]; experiment wp105): −0.3957
logFC ([3]; experiment wp105, direction down): −0.3957
logFC ([3]; experiment wp172): −0.471
logFC ([3]; experiment wp172, direction down): −0.471
logFC of CSK ([4]; experiment wp045): −1.542
logFC of CSK ([4]; experiment wp103): −1.282
logFC of CSK ([4]; experiment wp105): −0.6868
logFC of CSK ([4]; experiment wp107): −1.311
logFC of CSK ([4]; experiment wp114): −0.6932
logFC of CSK ([4]; experiment wp117): −1.414
logFC of CSK ([4]; experiment wp152): −1.513
logFC of CSK ([4]; experiment wp160, 2 hr): −0.8308
logFC of CSK ([4]; experiment wp160, 4 hr): −1.416
logFC of CSK ([4]; experiment wp160, 8 hr): −1.753
logFC of CSK ([4]; experiment wp172): −0.8538
logFC CSK ([4]; experiment wp045): −1.542
logFC CSK ([4]; experiment wp103): −1.282
logFC CSK ([4]; experiment wp105): −0.6868
logFC CSK ([4]; experiment wp107): −1.311
logFC CSK ([4]; experiment wp114): −0.6932
logFC CSK ([4]; experiment wp117): −1.414
logFC CSK ([4]; experiment wp152): −1.513
logFC CSK ([4]; experiment wp160, 2 hr): −0.8308
logFC CSK ([4]; experiment wp160, 4 hr): −1.416
logFC CSK ([4]; experiment wp160, 8 hr): −1.753
logFC CSK ([4]; experiment wp172): −0.8538
logFC MKNK2 (Q9HBH9-1) ([5]; Experiment wp045, direction down): −0.4463
logFC MKNK2 (Q9HBH9-1) ([5]; Experiment wp117, direction down): −0.3794
logFC MKNK2 (Q9HBH9) ([5]; direction down): −0.4447
logFC MKNK2 (Q9HBH9) ([5]; direction of change down): −0.4447
logFC MKNK2 (Q9HBH9-1) ([5]; Experiment wp160, 4 hr, direction down): −0.5226
logFC MKNK2 (Q9HBH9-1) ([5]; Experiment wp160, 8 hr, direction down): −0.6422
logFC ([5]; experiment wp045): −0.4463
logFC ([5]; experiment wp117): −0.3794
logFC ([5]; experiment wp160, 4 hr): −0.5226
logFC ([5]; experiment wp160, 8 hr): −0.6422
logFC MAP3K1 ([6]; Accession Q13233, experiment wp107, direction down): −0.3767
logFC MAP3K1 ([6]; Accession Q13233, experiment wp152, direction down): −0.6139
logFC MAP3K1 ([6]; Accession Q13233, experiment wp160, 8 hr, direction down): −0.7241
logFC MAP3K1 ([6]; MAP3K1 (Q13233), experiment wp107): −0.3767
logFC MAP3K1 ([6]; MAP3K1 (Q13233), experiment wp152): −0.6139
logFC MAP3K1 ([6]; MAP3K1 (Q13233), experiment wp160, 8 hr): −0.7241

Cc1ccc(NC(=O)c2cccc(C(F)(F)F)c2)cc1N1Cc2cnc(Nc3ccc(N4CCN(CCCOc5cccc6c5C(=O)N(C5CCC(=O)NC5=O)C6=O)CC4)nc3)nc2N(C)C1=O (stereo not shown) [DB0662]
logFC PFKFB3 ([1]; experiment wp168): −0.4517
logFC [2, 20]: −2.611
logFC MAPK9 [2, 20]: −2.611
logFC ([3]; experiment wp168): −0.8025
logFC ([3]; experiment wp168, direction down): −0.8025
logFC of CSK ([4]; experiment wp168): −1.833
logFC CSK ([4]; experiment wp168): −1.833
logFC MKNK2 (Q9HBH9-1) ([5]; Experiment wp168, direction down): −0.4185
logFC ([5]; experiment wp168): −0.4185
logFC MAP3K1 ([6]; Accession Q13233, experiment wp168, direction down): −0.7087
logFC MAP3K1 ([6]; MAP3K1 (Q13233), experiment wp168): −0.7087

C=CCn1c(=O)c2cnc(Nc3ccc(N4CCN(CCCNc5cccc6c5C(=O)N(C5CCC(=O)NC5=O)C6=O)CC4)cc3)nc2n1-c1cccc(C(C)(C)O)n1 (stereo not shown) [ZNL.02.096]
logFC FASTKD1 (Q53R41) ([7]; experiment wp056): −0.4079
logFC FASTKD1 (Q53R41) ([7]; experiment wp118): −0.4559
logFC PFKFB3 ([1]; experiment wp118): −0.4051
logFC [8]: −0.3685
logFC PDK1 [8]: −0.3685
logFC MKNK2 (Q9HBH9-1) ([5]; Experiment wp118, direction down): −0.4751
logFC ([5]; experiment wp118): −0.4751
logFC PDK2 ([9]; experiment wp056): −0.5561
logFC PDK2 ([9]; experiment wp118): −0.37
logFC PDK2 (Q15119-1) ([9]; experiment wp056): −0.5561
logFC PDK2 (Q15119-1) ([9]; experiment wp118): −0.37
